Measurements: patent publication US20190048052A1, “ANTI-MICROBIAL PEPTIDES AND COATINGS” (Board of Regents of the University of Nebraska, priority 2016, published 2019)
Residues, ends and D or L forms follow the SMILES beside them.

What was measured:
S. aureus USA300 [1] = test: Inhibition of biofilm growth (XTT); assay type: cell-based, Staphylococcus aureus; design: unit of the concentration uncertain
Experimental: Three types of experiments were conducted to evaluate the anti-biofilm activity of these peptides against S. aureus USA300, which was grown in tryptic soy broth (TSB) media in flat bottom, 96-well, polystyrene microtiter plates (Mishra et al. (2015) RSC Advances 5:59758-59769; Dean et al. (2011) BMC Microbiol., 11:114).
The second experiment evaluates the ability of the peptide to inhibit biofilm formation of S. aureus USA300 in 24 hours. In brief, S. aureus USA300 (10^5 CFU/mL) was made in fresh TSB media from exponentially growing bacteria. 180 μL of this bacterial culture was added to each well of the microtiter plates containing 20 μL of 10× peptide solution.

S. aureus USA300 [2] = test: Confocal microscopy of preformed biofilms, LIVE/DEAD staining; assay type: cell-based, Staphylococcus aureus; details: 25 μM
Experimental: S. aureus USA300 (10^5 CFU/mL) was made from exponentially growing bacteria. 1800 μL was added to the chamber of cuvettes (borosilicate cover glass systems), and was incubated for 37° C., 24 hours for biofilm formation. Media was then pipetted out and chambers were washed with 1×PBS to remove non-adhered cells. To disrupt the preformed biofilms, 200 μL of 10× stocks of the peptide was added followed by 1800 μL of TSB. Control cuvettes contained water instead of peptide. The cuvettes were again incubated for another 24 hours at 37° C. Subsequently, the supernatant was pipetted out and the chambers were washed with 1×PBS. For evaluation under confocal microscope the biofilms were stained with […] of LIVE/DEAD® kit (Invitrogen Molecular Probes) according to the manufacturer's instructions. The samples were examined with a confocal laser scanning microscope (Zeiss 710) and the data processed using Zen 2010 software.

## CC[C@H](C)[C@H](NC(=O)[C@H](CCCNC(=N)N)NC(=O)[C@H](CCCNC(=N)N)NC(=O)[C@H](CC(C)C)NC(=O)[C@H](Cc1c[nH]c2ccccc12)NC(=O)[C@H](Cc1c[nH]c2ccccc12)NC(=O)[C@@H](N)Cc1c[nH]c2ccccc12)C(=O)N[C@@H](Cc1c[nH]c2ccccc12)C(N)=O [TetraF2W-RR, WWWLRRIW] (H-WWWLRRIW-NH2; N-terminus assumed)
S. aureus USA300 [1]; 6.25 (unit uncertain) as printed
  inhibition of biofilm growth: actively inhibited biofilm growth
S. aureus USA300 [1]; 25 (unit uncertain) as printed
  inhibition of biofilm formation: completely inhibited
S. aureus USA300 [2]
  killing in 24 hour preformed biofilms (LIVE/DEAD confocal): capable of killing S. aureus USA300 in 24 hour biofilms
